“And” between values parts separate entries of the source, which are not always exact repeats. Identical values can stand only once.
Columns and labels:
[1] = tested on: individuals; experiment: Measurement of blood pressure: brachial diastolic and systolic, right upper arm, after transdermal CO2 vapor treatment; format: in vivo, human; parameters: Brachial Systolic / Brachial Diastolic: unit not given here; conditions: for Brachial Diastolic Percent / Brachial Systolic Percent: percent of pre-treatment; for Brachial Diastolic Percent / Brachial Systolic Percent / Brachial Diastolic / Brachial Systolic: per patient
Method: (§1) The treatment was administered by having an individual insert the left thumb into the open-ended delivery outlet of a device disclosed herein creating a seal. The digit will be “bathed” for five minutes with a vapor including supersaturated dissolved molecular carbon dioxide from a canister providing pure, medical-grade carbon dioxide. Nine individuals were examined.
To conduct this study, individuals from the study described in Example 1 had there blood pressure taken. A measurement of both brachial diastolic blood pressure and systolic blood pressure was performed on the individual's right upper arm at six time points 1) 5 minutes before treatment (pre-treatment); 2) 5 minutes post-treatment; 3) 30 minutes post-treatment; 4) 60 minutes post-treatment; 5) 120 minutes post-treatment; and 6) 240 minutes post-treatment.

[2] = tested on: individuals; experiment: Measurement of blood flow: Skin Perfusion Pressure (SensiLase System, laser Doppler) on right toe after transdermal CO2 vapor treatment of left thumb; format: in vivo, human; conditions: for SPP: right toe
Method: as §1
Tissue perfusion in distal arteries was accessed using a SensiLase System (a FDA-cleared device) and measuring Skin Perfusion Pressure (SPP) and Pulse Volume Recording (PVR). SPP is a pressure measurement in mmHg that assess local blood perfusion in capillaries using a laser Doppler to measure reactive hyperemia, which reflects microcirculation for distal arterial blood flow. PVR is a measurement of plethysmography to assess changes in arterial blood volume. A change in capillary blood flow (CBF) is calculated by determining the change in SPP values over time. For this study, the CBF values of all post-treatment measurements were calculated by dividing the post-treatment SPP value by the pre-treatment SPP value. A measurement of SPP was performed on the individual's right toe at six time points 1) 5 minutes before treatment (pre-treatment); 2) 5 minutes post-treatment; 3) 30 minutes post-treatment; 4) 60 minutes post-treatment; 5) 120 minutes post-treatment; and 6) 240 minutes post-treatment.

[3] = Post Treatment (5 min), right upper arm
[4] = nine individuals, 5-240 min post-treatment
[5] = seven of the nine individuals studied

## O=C=O [molecular carbon dioxide, carbon dioxide]
[1]; Post Treatment (5 min)
  Brachial Diastolic Percent: 98% and 100% and 77% (2×) and 113% and 80% (2×) and 89% and 111%
  Brachial Systolic Percent: 92% (2×) and 94% (2×) and 95% and 79% and 98% and 73% and 80%
[1]; [3]
  Brachial Diastolic: 78 and 68 (3×) and 60 (2×) and 72 (2×) and 80
  Brachial Systolic: 110 (2×) and 132 and 104 and 98 and 124 and 101 and 112 (2×)
[1]; Post Treatment (30 min)
  Brachial Diastolic: 70 (3×) and 58 and 62 and 78 and 80 and 52
  Brachial Systolic: 110 and 98 and 100 and 112 (2×) and 118 (3×)
  Brachial Diastolic Percent: 88% and 73% and 103% and 87% (2×) and 100% and 67% and 92%
  Brachial Systolic Percent: 92% and 89% and 96% and 80% and 94% and 81% and 84% and 97%
[1]; Post Treatment (60 min)
  Brachial Diastolic: 82 and 70 and 78 (2×) and 60 and 68 and 50 and 72 and 62
  Brachial Systolic: 138 and 118 (2×) and 115 and 150 and 106 and 110 (2×) and 128
  Brachial Diastolic Percent: 108% and 97% and 98% and 88% and 87% (2×) and 83% and 90% and 79%
  Brachial Systolic Percent: 99% and 97% and 96% (2×) and 107% and 106% and 79% and 102% and 86%
[1]; Post Treatment (120 min)
  Brachial Diastolic: 68 (2×) and 70 (2×) and 60 and 49 and 62 and 65 and 69
  Brachial Systolic: 120 and 128 and 90 and 127 and 102 and 110 and 111 and 116 and 118
  Brachial Diastolic Percent: 89% and 97% and 75% and 72% (2×) and 79% and 117% and 86% and 87%
  Brachial Systolic Percent: 86% (2×) and 105% and 75% and 91% and 93% and 106% and 79% and 92%
[1]; Post Treatment (240 min)
  Brachial Diastolic: 70 and 64 and 59 and 80 and 68 and 58 and 62 and 71 and 69
  Brachial Systolic: 118 (2×) and 108 (2×) and 113 and 140 and 112 (2×) and 117
  Brachial Diastolic Percent: 92% and 89% (2×) and 74% and 118% and 87% and 97% and 69% and 88%
  Brachial Systolic Percent: 84% and 89% and 94% (2×) and 100% and 102% and 104% and 80% and 85%
[1]; [4]
  effect on blood pressure: decreased blood pressure in all individuals examined at some point during the time period measured
[1]; [5]
  duration of decrease in diastolic and systolic blood pressure: decreased diastolic and systolic blood pressure over the course of the entire 240 minute study
[2]; Post Treatment (5 min), post-treatment SPP / pre-treatment SPP, per patient
  CBF: 124% and 104% and 102% and 87% and 117% and 122% and 109% and 113% and 114%
[2]; Post Treatment (5 min), one value per patient (1-9), 5 min vapor on left thumb
  SPP: 52 mmHg and 85 mmHg and 84 mmHg and 60 mmHg and 75 mmHg and 89 mmHg and 116 mmHg and 71 mmHg and 132 mmHg
[2]; Post Treatment (30 min), post/pre-treatment SPP, per patient
  CBF: 124% and 112% and 109% and 91% and 119% and 92% and 106% and 114%
[2]; Post Treatment (30 min), per patient
  SPP: 54 mmHg and 0 mmHg and 92 mmHg and 75 mmHg and 58 mmHg and 87 mmHg and 97 mmHg and 67 mmHg and 142 mmHg
[2]; Post Treatment (60 min), post/pre-treatment SPP, per patient
  CBF: 124% (2×) and 102% and 104% and 112% and 84% and 103% and 114% and 134%
[2]; Post Treatment (60 min), per patient
  SPP: 54 mmHg (2×) and 84 mmHg and 85 mmHg and 77 mmHg and 75 mmHg and 131 mmHg and 72 mmHg and 156 mmHg
[2]; Post Treatment (120 min), post/pre-treatment SPP, per patient
  CBF: 138% and 135% and 109% and 112% and 125% and 129% and 82% and 106% and 119%
[2]; Post Treatment (120 min), per patient
  SPP: 58 mmHg and 111 mmHg and 89 mmHg and 77 mmHg and 80 mmHg and 94 mmHg and 87 mmHg and 67 mmHg and 138 mmHg
[2]; Post Treatment (240 min), post/pre-treatment SPP, per patient
  CBF: 110% and 120% and 135% and 46% and 95% and 104% and 82% and 103% and 115%
[2]; Post Treatment (240 min), per patient
  SPP: 46 mmHg and 98 mmHg and 111 mmHg and 32 mmHg and 61 mmHg and 76 mmHg and 91 mmHg and 65 mmHg and 133 mmHg
[2]; four of these (of the seven of nine individuals)
  increase in capillary blood flow: ≥ 35%
[2]; [4]
  effect on blood flow: increases blood flow in all individuals examined at some point during the time period measured
[2]; [5]
  increase in capillary blood flow over baseline: about 25%
[2]; six of the nine patients
  duration of increase in capillary blood flow: sustained increases in capillary blood flow over the course of the entire 240 minute study
